Laboratory results published in publication PMC6217552, “Refining the structure−activity relationships of 2-phenylcyclopropane carboxylic acids as inhibitors of O-acetylserine sulfhydrylase isoforms” (Journal of Enzyme Inhibition and Medicinal Chemistry, 2018).
“And” between values parts separate entries of the source, which are not always exact repeats. Identical values can stand only once. Like-named read-outs stand apart in the source and are kept apart here.

What was measured:
StOASS-A [1] = molecular target: T1, StOASS-A (Salmonella typhimurium, UniProt P0A1E3); experiment: Direct fluorimetric titration of PLP cofactor fluorescence (dissociation constant); assay type: binding, Salmonella enterica serovar Typhimurium; conditions: 100 mM HEPES pH 7.0, 1% DMSO, 20 °C; read-out: OASS-A Kd
T1 construct: made in house; host or cells: E. coli
Experimental: (§1) StOASS-A and StOASS-B, expressed in E. coli, were purified by metal affinity chromatography as described previously. Proteins were more that 95% pure based on SDS-PAGE analysis (data not shown).
(§2) Ligand affinity was measured by direct fluorimetric titrations, monitoring the fluorescence emission spectrum of cofactor PLP upon excitation at 412 nm. 0.1–1 µM OASS was titrated by increasing concentrations of ligand in 100 mM HEPES pH 7.0, 1% DMSO, at 20 °C. The dependence of fluorescence emission intensity on the concentration of compound was fitted to a binding isotherm: I=I0+ΔI·[ligand]/Kd+[ligand] where, I is the fluorescence emission intensity at a given ligand concentration, I 0 is the fluorescence emission intensity in the absence of ligand, ΔI is the amplitude and K d is the dissociation constant. When the K d was lower than the concentration of the protein used in the assay, the dependence of the fluoresecnce emission intensity on ligand concentration was fitted to a quadratic equation that describes tight binding. The fluorescence competitive binding assay, described elsewhere, was used to evaluate whether compounds bind at the active site of the enzyme or to an allosteric site. The assay is based on the formation of a low-affinity, highly fluorescent complex between OASS and 1-ethylcyclopropane-1,2-dicarboxylic acid. Binding of a higher affinity compound to the active site displaces 1-ethylcyclopropane-1,2-dicarboxylic acid and leads to a decrease in the fluorescence emission intensity.

StOASS-B [2] = molecular target: T2, StOASS-B (Salmonella typhimurium, UniProt P29848); experiment: as above; assay type: binding
T2 construct: made in house; host or cells: E. coli
T2 sequence (P29848 1-303): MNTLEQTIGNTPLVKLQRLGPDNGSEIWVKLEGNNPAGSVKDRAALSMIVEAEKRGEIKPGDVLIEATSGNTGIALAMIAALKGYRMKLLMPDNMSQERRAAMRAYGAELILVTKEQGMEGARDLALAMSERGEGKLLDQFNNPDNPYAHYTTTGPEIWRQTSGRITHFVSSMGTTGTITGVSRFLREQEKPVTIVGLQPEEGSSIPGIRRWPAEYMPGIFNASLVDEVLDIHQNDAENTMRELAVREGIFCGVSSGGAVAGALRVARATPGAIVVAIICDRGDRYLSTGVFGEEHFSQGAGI
Experimental: as §1, §2

[3] = tested on: Escherichia coli ATCC25922; experiment: Minimal inhibitory concentration (CLSI) in medium with limiting cysteine; assay type: cell-based; conditions: E. coli ATCC25922, medium with limiting cysteine; data not shown
Experimental: Minimal inhibitory concentration assays were performed according to the CLSI guidelines (Clinical and Laboratory Standards Institute; Performance Standards for Antimicrobial Susceptibility Testing; Twenty-Fourth Informational Supplement; CLSI document M100-S24, CLSI; 2014.). The compounds were dissolved in DMSO to obtain a stock solution 100-fold more concentrated than the desired higher concentration and then 10 serial dilutions were performed. One microliter of each dilution was transferred to the microtiter plate.
Escherichia coli ATCC25922 was grown until log phase on liquid Mueller–Hinton broth at 37 °C in a shaker at 225 rpm. Bacterial suspension was then centrifuged at 2500 rpm for 15 min and diluted with phosphate buffer to obtain a solution with a turbidity of about 0.5 McFarland. Bacterial suspension was further diluted (1:100) with fresh LB 20%. Fifty microliters of the bacterial suspension containing 10^6 CFU/mL were inoculated into each well, to obtain a final concentration of 5 × 10^5 CFU/mL. Each plate contained growth control wells and sterility check wells.
We investigated the ability of the new set of compounds to interfere with bacterial growth.

StOASS-A [4] = molecular target: T1, StOASS-A; experiment: Steady-state enzyme activity assay, discontinuous ninhydrin cysteine determination; assay type: biochemical, Salmonella enterica serovar Typhimurium; conditions: 1 mM OAS, 0.6 mM Na2S, 6 nM OASS, 100 mM HEPES pH 7.0, 1% DMSO
Experimental: as §1
(§3) Enzyme activity under steady-state conditions was measured by a discontinuous method as described previously. Briefly, the reaction was carried out in 100 mM HEPES pH 7.0 in the presence of 6 nM OASS, 60 nM BSA to prevent enzyme adhesion to tube wall, 1 mM OAS (equal to the K m value of this subsrate), 0.6 mM Na2S (a saturating concentration), 1% DMSO and variable concentrations of inhibitor. Reaction was stopped at time intervals by the addition of acetic acid and concentration of cysteine was determined by a modification of the ninhydrin assay. The fractional velocity as a function of inhibitor concentration was determined and IC50 was calculated by the following equation: vi/v0=1/1+(I/IC50) where, v 0 is the reaction velocity in the absence of inhibitor and v i is reaction velocity in the presence of inhibitor at concentration [I].
(§4) For a competitive inhibitor against OAS the IC50 measured under these conditions is about 2⋅K d.

StOASS-B [5] = molecular target: T2, StOASS-B; experiment: as above; assay type: biochemical
Experimental: as §1, §3, §4

E.coli = tested on: E.coli; design: method as in manuscript in preparation; conditions: ref manuscript in preparation, cited from earlier work

T1 sequence (P0A1E3 whole entry): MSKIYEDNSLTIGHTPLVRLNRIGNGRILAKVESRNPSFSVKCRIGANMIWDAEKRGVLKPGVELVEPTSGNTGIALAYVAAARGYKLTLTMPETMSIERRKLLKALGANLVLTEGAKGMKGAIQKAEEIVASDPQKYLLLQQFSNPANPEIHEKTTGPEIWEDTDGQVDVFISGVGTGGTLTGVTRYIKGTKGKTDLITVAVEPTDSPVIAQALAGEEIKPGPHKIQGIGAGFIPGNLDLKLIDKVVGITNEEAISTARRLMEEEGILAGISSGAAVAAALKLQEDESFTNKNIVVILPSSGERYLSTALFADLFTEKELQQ

Question: With “1-(4-methylbenzyl)-2-(pyridin-4-yl)cyclopropane-1-carboxylic acid [Compound 5]” as the compound, how does the Kd (StOASS-A [1]) read?
Answer: Its Kd is 0.4 ± 0.1 µM.

Question: What about the Kd (StOASS-B [2]; 100 mM HEPES pH 7.0, 1% DMSO, 20 °C, read-out: OASS-B Kd) of the same compound?
Answer: The Kd was 6.1 ± 0.5 µM.

Question: And the “Interference with bacterial growth (MIC)” value [3]?
Answer: Its value is “none of the synthesised compounds was able to interfere significantly with bacterial growth”.

Question: What does the source list for `Cc1ccc(CC2(C(=O)O)CC2c2ccc([N+](=O)[O-])cc2)cc1` (centres unmarked) [Compound 8, 1-(4-methylbenzyl)-2-(4-nitrophenyl)cyclopropane-1-carboxylic acid]?
Answer: Kd (StOASS-A [1]): 61 ± 6 µM; Kd (StOASS-B [2]): 145 ± 2 µM

Question: For `Cc1ccc(CC2(C(=O)O)CC2c2ccc(CNC(C)C)cc2)cc1` (centres unmarked) [Compound 10, 2-(4-((isopropylamino)methyl)phenyl)-1-(4-methylbenzyl)cyclopropane-1-carboxylic acid], which Kd (StOASS-A [1]) is on record?
Answer: The Kd was 155 ± 5 µM.

Question: For `Cc1ccc(CC2(C(=O)O)CC2c2ccc(N)cc2)cc1` (centres unmarked) [Compound 12, 2-(4-aminophenyl)-1-(4-methylbenzyl)cyclopropane-1-carboxylic acid], which Kd (StOASS-A [1]) is on record?
Answer: Its Kd is 1.4 ± 0.3 µM.

Question: And the Kd (StOASS-B [2])?
Answer: The Kd was 5.7 ± 0.7 µM.

Question: What about the “Interference with bacterial growth (MIC)” value [3] of the same compound?
Answer: Its value is “none of the synthesised compounds was able to interfere significantly with bacterial growth”.

Question: What does the source list for `Cc1ccc(C[C@]2(C(=O)N(C)C3CCOCC3)C[C@H]2c2ccccc2)cc1` [Compound 16, (1R,2S)-1-N-methyl-1-(4-methylbenzyl)-2-phenyl-N-(tetrahydro-2H-pyran-4-yl)cyclopropane-1-carboxamide]?
Answer: IC50 (StOASS-A [4]): 17.2 µM and 17 µM; IC50 (StOASS-B [5]): 137 ± 10 µM; Interference with bacterial growth (MIC) [3]: none of the synthesised compounds was able to interfere significantly with bacterial growth

Question: With `CCN1CCCC1CNC(=O)[C@@]1(Cc2ccc(C)cc2)C[C@H]1c1ccccc1` (stereo partly drawn) [Compound 17, (1R,2S)-1-N-((1-ethylpyrrolidin-2-yl)methyl)-1-(4-methylbenzyl)-2-phenylcyclopropane-1-carboxamide] as the compound, how does the IC50 (StOASS-A [4]) read?
Answer: Its IC50 is greater than 100 µM.

Question: What about the IC50 (StOASS-B [5]) of the same compound?
Answer: The IC50 was greater than 100 µM.

Question: What does the source list for `Cc1ccc(C[C@]2(C(=O)NCc3ccccc3)C[C@H]2c2ccccc2)cc1` [Compound 18, (1R,2S)-1-N-benzyl-1-(4-methylbenzyl)-2-phenylcyclopropane-1-carboxamide]?
Answer: IC50 (StOASS-A [4]): > 100 µM; IC50 (StOASS-B [5]; read-out: OASS-B IC50, 1 mM OAS, 0.6 mM Na2S, 6 nM OASS, 100 mM HEPES pH 7.0, 1% DMSO): > 100 µM

Question: With `Cc1ccc(C[C@]2(C(=O)NCc3cccs3)C[C@H]2c2ccccc2)cc1` [Compound 19, (1R,2S)-1-(4-methylbenzyl)-2-phenyl-N-(thiophen-2-ylmethyl)cyclopropane-1-carboxamide] as the compound, how does the IC50 (StOASS-A [4]) read?
Answer: The IC50 was greater than 100 µM.

Question: What about the IC50 (StOASS-B [5]) of the same compound?
Answer: Its IC50 is greater than 100 µM.

Question: Which IC50 (StOASS-A [4]) does the source give for `Cc1ccc(C[C@]2(C(=O)NCc3nccn3C)C[C@H]2c2ccccc2)cc1` [Compound 20, (1R,2S)-1-N-((1-methyl-1H-imidazol-2-yl)methyl)-1-(4-methylbenzyl)-2-phenylcyclopropane-1-carboxamide] here?
Answer: Its IC50 is greater than 100 µM.

Question: What about the IC50 (StOASS-B [5]) of the same compound?
Answer: The IC50 was greater than 100 µM.

Question: For `C#CCNC(=O)[C@@]1(Cc2ccc(C)cc2)C[C@H]1c1ccccc1` [Compound 21, (1R,2S)-1-(4-methylbenzyl)-2-phenyl-N-(prop-2-yn-1-yl)cyclopropane-1-carboxamide], which IC50 (StOASS-A [4]) is on record?
Answer: The IC50 was greater than 100 µM.

Question: What about the IC50 (StOASS-B [5]) of the same compound?
Answer: The IC50 was greater than 100 µM.

Question: With `Cc1ccc(C[C@]2(C(=O)NCC3CCCO3)C[C@H]2c2ccccc2)cc1` (stereo partly drawn) [Compound 22, (1R,2S)-1-(4-methylbenzyl)-2-phenyl-N-((tetrahydrofuran-2-yl)methyl)cyclopropane-1-carboxamide] as the compound, how does the IC50 (StOASS-A [4]) read?
Answer: The IC50 was greater than 100 µM.

Question: And the IC50 (StOASS-B [5])?
Answer: Its IC50 is greater than 100 µM.

Question: Which IC50 (StOASS-A [4]) does the source give for `N#C[C@@]1(Cc2ccccc2)C[C@H]1c1ccccc1` [Compound 28, (1R,2S)-1-benzyl-2-phenylcyclopropanecarbonitrile] here?
Answer: Its IC50 is greater than 250 µM.

Question: For `c1ccc(C[C@]2(c3nnn[nH]3)C[C@H]2c2ccccc2)cc1` [Compound 29, (1R,2S)-5-(1-benzyl-2-phenylcyclopropyl)-1H-tetrazole], which Kd (StOASS-A [1]) is on record?
Answer: Its Kd is 90 ± 14 µM.

Question: With `O=C(O)C1(Cc2ccncc2)CC1c1ccccc1` (centres unmarked) [Compound 33, 2-phenyl-1-(pyridin-4-ylmethyl)cyclopropane-1-carboxylic acid] as the compound, how does the Kd (StOASS-A [1]) read?
Answer: The Kd was 24 ± 2 µM.

Question: And the Kd (StOASS-B [2])?
Answer: Its Kd is 275 ± 42 µM.

Question: And the “Interference with bacterial growth (MIC)” value [3]?
Answer: Its value is “none of the synthesised compounds was able to interfere significantly with bacterial growth”.

Question: For `O=C(O)C1(Cn2ccnc2)CC1c1ccccc1` (centres unmarked) [Compound 47, 1-((1H-imidazol-1-yl)methyl)-2-phenylcyclopropane-1-carboxylic acid], which Kd (StOASS-A [1]) is on record?
Answer: Its Kd is 7.6 ± 0.5 µM.

Question: And the Kd (StOASS-B [2])?
Answer: The Kd was 397 ± 42 µM.

Question: Which Kd (StOASS-A [1]) does the source give for `O=C(O)C1(Cn2cccn2)CC1c1ccccc1` (centres unmarked) [Compound 48, 1-((1H-pyrazol-1-yl)methyl)-2-phenylcyclopropane-1-carboxylic acid] here?
Answer: Its Kd is 1.5 ± 0.2 µM.

Question: And the Kd (StOASS-B [2])?
Answer: The Kd was 96 ± 7 µM.

Question: With `O=C(O)C1(Cn2cccc2)CC1c1ccccc1` (centres unmarked) [Compound 49, 1-((1H-pyrrol-1-yl)methyl)-2-phenylcyclopropane-1-carboxylic acid] as the compound, how does the Kd (StOASS-A [1]) read?
Answer: The Kd was 0.5 ± 0.1 µM.

Question: And the Kd (StOASS-B [2])?
Answer: Its Kd is 22 ± 2 µM.

Question: Which Kd (StOASS-A [1]) does the source give for `O=C(O)C1(Cn2cncn2)CC1c1ccccc1` (centres unmarked) [Compound 50, 1-((1H-1,2,4-triazol-1-yl)methyl)-2-phenylcyclopropane-1-carboxylic acid] here?
Answer: The Kd was 18 ± 5 µM.

Question: And the Kd (StOASS-B [2])?
Answer: The Kd was 250 ± 14 µM.

Question: Which results are given for `Cc1ccc(C[C@@]2(C(=O)O)C[C@H]2c2ccccc2)cc1` [II, reference compound]?
Answer: Kd (StOASS-A [1]): 0.03 ± 0.01 µM; Kd (StOASS-B [2]): 0.5 ± 0.1 µM; Inhibitory activity on cell growth (E.coli; E.coli, minimal medium): failed to show appreciable inhibitory activity on cell growth; MIC with permeabilizing agent (E.coli; co-administration of sub-lethal concentrations of polymyxin B nonapeptide (PMBN)): led to a measurable MIC
